Literature values, collected in PubChem BioAssay AID1259409 (Chemical Carcinogenesis Research Information System (CCRIS), 2018).
Where a SMILES comes first, the peptide text is derived from it.

Tested on: rodent chemically induced tumor inhibition, incidence and multiplicity
Experiment: CCRIS tumor inhibitor studies
[1] = Carcinogen: 7,12-DIMETHYLBENZ[A]ANTHRACENE, 57-97-6, Dose [Inhibitor]: 0, 0.2 PPM IN DIET BEGINNING 3 D PRIOR TO CARCINOGEN DOSE AND CONTINUING FOR 8 MO (STUDY DURATION: 8 MO), Route [Inhibitor]: ORAL, Species: MOUSE, Strain/Sex: BALB/FEMALE, Target Tissue: Type of Lesion: MAMMARY GLAND: ADENOCARCINOMA, Dose [Carcinogen]: 1 MG/WK FOR 6 WK, Promoter: NONE USED
[2] = Carcinogen: 7,12-DIMETHYLBENZ[A]ANTHRACENE, 57-97-6, Dose [Inhibitor]: 0, 2 PPM IN DIET BEGINNING 3 D PRIOR TO CARCINOGEN DOSE AND CONTINUING FOR 8 MO (STUDY DURATION: 8 MO), Route [Inhibitor]: ORAL, Species: MOUSE, Strain/Sex: BALB/FEMALE, Target Tissue: Type of Lesion: MAMMARY GLAND: ADENOCARCINOMA, Dose [Carcinogen]: 1 MG/WK FOR 6 WK, Promoter: NONE USED

For `C[Se]CCC(N)C(=O)O` (stereo not given), the “tumour outcome (control, treated, inhibition, significance)” value (Carcinogen: 3'-METHYL-4-DIMETHYLAMINOAZOBENZENE, 55-80-1, Dose [Inhibitor]: 118 UG SELENIUM AS HIGH SELENIUM YEAST/GM IN DIET DAILY STARTING 1 WK PRIOR TO START OF CARCINOGEN TREATMENT AND CONTINU, Route [Inhibitor]: ORAL, Species: RAT, Strain/Sex: SPRAGUE-DAWLEY/MALE, Target Tissue: Type of Lesion: LIVER: ADENOCARCINOMA, Dose [Carcinogen]: 0.05% IN DIET DAILY FOR 8 WK, Promoter: NONE USED) is listed as 11/12 (92%), 9/14 (64%), 30%, p 0.04, the “tumour outcome (control, treated, inhibition, significance)” value (Carcinogen: 4-(METHYLNITROSAMINO)-1-(3-PYRIDYL)-1-BUTANONE, 64091-91-4, Dose [Inhibitor]: 0, 3.75 PPM IN DIET FOR 3 WK BEGINNING 1 WK PRIOR TO CARCINOGEN DOSE (STUDY DURATION: 18 WK), Route [Inhibitor]: ORAL, Species: MOUSE, Strain/Sex: STRAIN-A/FEMALE, Target Tissue: Type of Lesion: LUNG: TUMOR, Dose [Carcinogen]: 10 UMOL IN 0.1 ML SALINE ONCE, Promoter: NONE USED) is listed as 100%, 96%, 4%, not significant and the “tumour outcome (control, treated, inhibition, significance)” value (Carcinogen: 4-(METHYLNITROSAMINO)-1-(3-PYRIDYL)-1-BUTANONE, 64091-91-4, Dose [Inhibitor]: 0, 3.75 PPM IN DIET FOR 15 WK BEGINNING 1 WK POST CARCINOGEN DOSE (STUDY DURATION: 18 WK), Route [Inhibitor]: ORAL, Species: MOUSE, Strain/Sex: STRAIN-A/FEMALE, Target Tissue: Type of Lesion: LUNG: TUMOR, Dose [Carcinogen]: 10 UMOL IN 0.1 ML SALINE ONCE, Promoter: NONE USED) is listed as 100%, 100%, 0%, not significant. The “tumour outcome (control, treated, inhibition, significance)” value (Carcinogen: 7,12-DIMETHYLBENZ[A]ANTHRACENE (DMBA) [57-97-6], Dose [Inhibitor]: 20 UG/D GIVEN 2 WK BEFORE DMBA AND DAILY FOR 1 WK (STUDY DURATION: 120 D), Route [Inhibitor]: ORAL (GAVAGE), Species: RAT, Strain/Sex: WISTAR/FEMALE (12,?)/(12,12), Target Tissue: Type of Lesion: MAMMARY GLAND: CARCINOMA, Dose [Carcinogen]: 12 MG ONCE (STUDY DURATION: 120 D)) was 33%, 0%, 100%, the “tumour outcome (control, treated, inhibition, significance)” value [1] was 12/31 (39%), 6/21 (29%), 26%, not calculated and the “tumour outcome (control, treated, inhibition, significance)” value [2] was 12/31 (39%), 6/23 (26%), 33%, not calculated. For the same compound, the “tumour outcome (control, treated, inhibition, significance)” value (Carcinogen: AZOXYMETHANE [25843-45-2], Dose [Inhibitor]: 10 PPM IN DIET FOR 56 WK BEGINNING 2 WK PRIOR TO FIRST CARCINOGEN DOSE (STUDY DURATION: 56 WK), Route [Inhibitor]: ORAL, Species: RAT, Strain/Sex: F344/MALE, Target Tissue: Type of Lesion: COLON: ADENOMA OR ADENOCARCINOMA, Dose [Carcinogen]: 15 MG/KG BW 1X/WK FOR 2 WK (STUDY DURATION: 56 WK), Promoter: NONE) was 76%, 64%, 16%, not significant, the “tumour outcome (control, treated, inhibition, significance)” value (Carcinogen: AZOXYMETHANE [25843-45-2], Dose [Inhibitor]: 15 PPM IN DIET FOR 56 WK BEGINNING 2 WK PRIOR TO FIRST CARCINOGEN DOSE (STUDY DURATION: 56 WK), Route [Inhibitor]: ORAL, Species: RAT, Strain/Sex: F344/MALE, Target Tissue: Type of Lesion: COLON: ADENOMA OR ADENOCARCINOMA, Dose [Carcinogen]: 15 MG/KG BW 1X/WK FOR 2 WK (STUDY DURATION: 56 WK), Promoter: NONE) was 76%, 89%, -17%, not significant and the “tumour outcome (control, treated, inhibition, significance)” value (Carcinogen: N-METHYL-N-NITROSOUREA, 684-93-5, Dose [Inhibitor]: 5 PPM IN DIET DAILY FOR 128 D STARTING 7 D AFTER CARCINOGEN TREATMENT AND CONTINUING FOR DURATION OF STUDY (STUDY DURATI, Route [Inhibitor]: ORAL, Species: RAT, Strain/Sex: SPRAGUE-DAWLEY/FEMALE, Target Tissue: Type of Lesion: MAMMARY GLAND: CARCINOMA, Dose [Carcinogen]: 50 MG/KG BW IN ACIDIFIED SALINE (PH 4.0) ONCE AT AGE 50 D, Promoter: NONE USED) was 90%, 95%, -6%, not significant. For the same compound, the “tumour outcome (control, treated, inhibition, significance)” value (Carcinogen: N-METHYL-N-NITROSOUREA, 684-93-5, Dose [Inhibitor]: 6 PPM IN DIET DAILY FOR 128 D STARTING 7 D AFTER CARCINOGEN TREATMENT AND CONTINUING FOR DURATION OF STUDY (STUDY DURATI, Route [Inhibitor]: ORAL, Species: RAT, Strain/Sex: SPRAGUE-DAWLEY/FEMALE, Target Tissue: Type of Lesion: MAMMARY GLAND: CARCINOMA, Dose [Carcinogen]: 50 MG/KG BW IN ACIDIFIED SALINE (PH 4.0) ONCE AT AGE 50 D, Promoter: NONE USED) was 90%, 80%, 11%, not significant, the “tumour outcome (control, treated, inhibition, significance)” value (Carcinogen: NONE USED, Dose [Inhibitor]: 1 PPM IN DIET DAILY STARTING AT AGE 13.8 MO AND CONTINUING FOR LIFE (STUDY DURATION: LIFE), Route [Inhibitor]: ORAL, Species: MOUSE, Strain/Sex: C3H/FEMALE, Target Tissue: Type of Lesion: MAMMARY GLAND: ADENOCARCINOMA, Promoter: NONE USED) was 20/26 (77%), 12/26 (46%), 40%, p<0.05 and the “tumour outcome (control, treated, inhibition, significance)” value (Carcinogen: NONE USED, Dose [Inhibitor]: 1 PPM IN DIET DAILY STARTING AT WEANING AND CONTINUING FOR LIFE (STUDY DURATION: LIFE), Route [Inhibitor]: ORAL, Species: MOUSE, Strain/Sex: C3H/FEMALE, Target Tissue: Type of Lesion: MAMMARY GLAND: ADENOCARCINOMA, Promoter: NONE USED) was 20/26 (77%), 7/26 (27%), 65%, p<0.005. For the same compound, the “tumour outcome (control, treated, inhibition, significance)” value (Carcinogen: NONE USED, Dose [Inhibitor]: 1 PPM IN DIET DAILY STARTING AT WEANING AND CONTINUING THROUGH AGE 13.8 MO FOL LOWED BY CONTROL DIET FOR LIFE (STUDY DUR, Route [Inhibitor]: ORAL, Species: MOUSE, Strain/Sex: C3H/FEMALE, Target Tissue: Type of Lesion: MAMMARY GLAND: ADENOCARCINOMA, Promoter: NONE USED) was 20/26 (77%), 18/26 (69%), 10%, not significant.
For `NC(C[Se][Se]CC(N)C(=O)O)C(=O)O` (stereo not given), the “tumour outcome (control, treated, inhibition, significance)” value [1] is listed as 12/31 (39%), 8/28 (29%), 26%, not calculated and the “tumour outcome (control, treated, inhibition, significance)” value [2] is listed as 12/31 (39%), 7/24 (29%), 26%, not calculated.
For `NCCCC[C@H](N)C(=O)N[C@@H](CCC(=O)O)C(=O)O` (H-Lys-Glu-OH), the “tumour outcome (control, treated, inhibition, significance)” value (Carcinogen: N-BUTYL-N-(4-HYDROXYBUTYL)NITROSAMINE, 3817-11-6, Dose [Inhibitor]: 0, 30 UG/ANIMAL IN RIGHT THIGH DOES OF 1 UG/KG BW 1/D FOR 5 D WITH 4 WK INTERVALS FOR 6 MO (STUDY DURATION: 49 WK), Route [Inhibitor]: INTRAMUSCULAR, Species: RAT, Strain/Sex: ALBINO/MALE, Target Tissue: Type of Lesion: URINARY BLADDER: BENIGN TUMOR, Dose [Carcinogen]: 0.04% IN DRINKING WATER FOR FIRST 12 WK) is given as 13/49 (27%), 14/50 (28%), -4%, not calculated and the “tumour outcome (control, treated, inhibition, significance)” value (Carcinogen: N-BUTYL-N-(4-HYDROXYBUTYL)NITROSAMINE, 3817-11-6, Dose [Inhibitor]: 0, 30 UG/ANIMAL IN RIGHT THIGH DOES OF 1 UG/KG BW 1/D FOR 5 D WITH 4 WK INTERVALS FOR 6 MO (STUDY DURATION: 49 WK), Route [Inhibitor]: INTRAMUSCULAR, Species: RAT, Strain/Sex: ALBINO/MALE, Target Tissue: Type of Lesion: URINARY BLADDER: IN SITU CARCINOMA, Dose [Carcinogen]: 0.04% IN DRINKING WATER FOR FIRST 12 WK) is given as 11/49 (22%), 4/50 (8%), 64%, not calculated.
For `CCCCC[C@H](O)/C=C/[C@@H]1[C@@H](C/C=C\CCCC(=O)O)[C@@H](O)C[C@H]1O`, the “tumour outcome (control, treated, inhibition, significance)” value (Carcinogen: ETHYL METHANESULFONATE, 62-50-0, Dose [Inhibitor]: 0, 1 MG/KG IN SESAME OIL 2/WK FOR 8 WK ADMINISTERED CONCOMITANTLY WITH CARCINOGEN TREATMENT (STUDY DURATION: 44 WK), Route [Inhibitor]: INTRAMUSCULAR, Species: RAT, Strain/Sex: WISTAR/FEMALE, Target Tissue: Type of Lesion: MAMMARY GLAND: CARCINOMA, Dose [Carcinogen]: 0.001 MOLAR SOLUTION IN TAP WATER FOR 12 WK, Promoter: NONE USED) is given as 100%, 61%, 39%, p<0.01 and the “tumour outcome (control, treated, inhibition, significance)” value (Carcinogen: ETHYL METHANESULFONATE, 62-50-0, Dose [Inhibitor]: 0, 1 MG/KG IN SESAME OIL 2/WK FOR 8 WK BEGINNING POST CARCINOGEN TREATMENT (STUDY DURATION: 44 WK), Route [Inhibitor]: INTRAMUSCULAR, Species: RAT, Strain/Sex: WISTAR/FEMALE, Target Tissue: Type of Lesion: MAMMARY GLAND: CARCINOMA, Dose [Carcinogen]: 0.001 MOLAR SOLUTION IN TAP WATER FOR 12 WK, Promoter: NONE USED) is given as 100%, 88%, 12%, not significant.
For `CC(C)(C)c1cc(COCc2cc(C(C)(C)C)c(O)c(C(C)(C)C)c2)cc(C(C)(C)C)c1O`, the “tumour outcome (control, treated, inhibition, significance)” value (Carcinogen: BENZO[A]PYRENE, 50-32-8, Dose [Inhibitor]: 0.03 MMOL/G OF DIET DAILY STARTING 7 D BEFORE AND CONTINUING THROUGH 3 D AFTER CARCINOGEN TREATMENT FOLLOWED BY OBSERVAT, Route [Inhibitor]: ORAL, Species: MOUSE, Strain/Sex: ICR/FEMALE, Target Tissue: Type of Lesion: FORESTOMACH: NEOPLASM, Dose [Carcinogen]: 1 MG IN 0.2 ML CORN OIL 2/WK FOR 4 WK, Promoter: NONE USED) is listed as 94%, 95%, -1%, not significant.
